Test in all cases: inhibition of tumour cell growth, NCI panel, 48 h
Assay [1] relates to HCC 2998.
Assay [2] has as its system NCI-H522.
Assay [3] concerns OVCAR-4.
The test system of assay [4] is SW-620.
Assay [5] concerns SK-MEL-28.
For assay [6], the system named is SF-295.
In assay [7] the test system is U-251.
Assay [8] relates to NCI-H460.
The subject of assay [9] is NCI-H226.
Assay [10] relates to MOLT-4.
The subject of assay [11] is UO-31.
Assay [12] relates to UACC-62.
The subject of assay [13] is HCT-116.
In assay [14] the test system is KM12.
For assay [15], the system named is SNB-75.
For assay [16], the system named is HOP-62.
Assay [17] has as its system HT-29.
Assay [18] deals with A549.
Assay [19] relates to OVCAR-8.
Assay [20] relates to EKVX.

Structures are written as SMILES.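 Five concentrations, 48 hours, 96-well plates. GI50: concentration for 50% inhibition of growth.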 Activity calls are given as the source filed them. Rule as the data show it: active = GI50 up to about 1.1 µM and inactive = higher.

Consider `O=C1CNC(=O)N1` [HYDANTOIN], for which the GI50 in assay [1], in assay [2], in assay [3], in assay [4], in assay [5] and in assay [6] was > 1120 µM (inactive) in each case. For the same compound, the GI50 in [7] is > 1120 µM (inactive); in assay [8], > 1120 µM (inactive); in [9], 11.2 µM (inactive); in assay [10] it was > 1120 µM (inactive); in assay [11] it was > 1120 µM (inactive); in assay [12], > 1120 µM (inactive). The GI50 is > 1120 µM (inactive) in assay [13]; > 1120 µM (inactive) in [14]; 177 µM (inactive) in [15]; > 1120 µM (inactive) in assay [16]; > 1120 µM (inactive) in assay [17]; > 1120 µM (inactive) in assay [18]. In addition, the GI50 in assay [19] and in assay [20] was > 1120 µM (inactive) throughout.

Turning to `Cc1c2cc[n+](C)cc2c(C)c2c1[nH]c1ccccc12`, the GI50 in assay [1] is 3.49 µM (inactive); in [2], 0.869 µM (active); in [3], 2.77 µM (inactive); in assay [4] it was 1.17 µM (inactive); in [5], 1.34 µM (inactive); in assay [6], 0.233 µM (active). Also, the GI50 in assay [7] is 0.379 µM (active); in [8] it was 2.06 µM (inactive); in assay [9] it was 0.34 µM (active); in [10] it was 0.912 µM (active); in assay [11] it was 15.8 µM (inactive); in assay [12], 4.5 µM (inactive). Further, the GI50 in [13] is 4.22 µM (inactive); in assay [14], 0.402 µM (active); in assay [15], 0.193 µM (active); in assay [16] it was 0.441 µM (active); in [17] it was 5.83 µM (inactive); in assay [18] it was 0.225 µM (active). Moreover, the GI50 is 0.399 µM (active) in assay [19] and 0.718 µM (active) in [20].

The values are drawn from ChEMBL document CHEMBL1201862, “PubChem BioAssay data set” (2004).
